# Measured values taken from patent publication US10961231B2, “NTCP inhibitors” (National Institute of Biological Sciences, Beijing, priority 2018, dated 2021).
# Molecular target: T1, NTCP (Homo sapiens, UniProt Q14973)
# T1 sequence (Q14973 1-349): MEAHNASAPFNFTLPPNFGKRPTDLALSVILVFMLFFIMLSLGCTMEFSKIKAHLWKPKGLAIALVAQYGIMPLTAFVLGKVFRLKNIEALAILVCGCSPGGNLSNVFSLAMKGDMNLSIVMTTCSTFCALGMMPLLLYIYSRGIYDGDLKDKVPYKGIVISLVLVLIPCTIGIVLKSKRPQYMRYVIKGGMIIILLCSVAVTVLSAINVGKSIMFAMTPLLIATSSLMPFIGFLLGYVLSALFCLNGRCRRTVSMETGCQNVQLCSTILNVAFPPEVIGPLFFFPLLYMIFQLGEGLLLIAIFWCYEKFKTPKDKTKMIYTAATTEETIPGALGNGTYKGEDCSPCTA
# Experiment: [3H]-TCA uptake assay (NTCP inhibition)
# Type: cell-based
# Conditions: IC50, given as a range, marked * (asterisk not explained)
# How it was run: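 PTH and HepG2-NTCP cells kept 24 h in PMM to induce NTCP, then exposed 2 h to test compounds or DMSO. Uptake of 1 μM [3H]-taurocholate in Na+ Ringer's buffer (145 mM Na) ran 15 min at 37° C. Cells washed, lysed in 1% Triton X-100, and radioactivity counted by liquid scintillation.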
row,Structure (SMILES),IC50 [nM]
1,CCC1NC(=O)C(C2OC(Oc3cccc(OCc4ccccn4)c3)CC2C)N(C)C(=O)C(C(C)C)N(C)C(=O)C(CC(C)C)N(C)C(=O)C(CC(C)C)N(C)C(=O)C(C)NC(=O)C(C)NC(=O)C(CC(C)C)N(C)C(=O)C(C(C)C)NC(=O)C(CC(C)C)N(C)C(=O)CN(C)C1=O (centres unmarked) [Compound 52A-o],1000 to 100000
2,CCC1NC(=O)C(C2OC(Oc3cccc(OCc4cccnc4)c3)CC2C)N(C)C(=O)C(C(C)C)N(C)C(=O)C(CC(C)C)N(C)C(=O)C(CC(C)C)N(C)C(=O)C(C)NC(=O)C(C)NC(=O)C(CC(C)C)N(C)C(=O)C(C(C)C)NC(=O)C(CC(C)C)N(C)C(=O)CN(C)C1=O (centres unmarked) [Compound 53A-o],10000
3,CCC1NC(=O)C(C2OC(Oc3cccc(OCc4ccncc4)c3)CC2C)N(C)C(=O)C(C(C)C)N(C)C(=O)C(CC(C)C)N(C)C(=O)C(CC(C)C)N(C)C(=O)C(C)NC(=O)C(C)NC(=O)C(CC(C)C)N(C)C(=O)C(C(C)C)NC(=O)C(CC(C)C)N(C)C(=O)CN(C)C1=O (centres unmarked) [Compound 54A-o],1000 to 100000
4,CCC1NC(=O)C(C2OC(Oc3ccc(OCc4ccccc4)cc3)CC2C)N(C)C(=O)C(C(C)C)N(C)C(=O)C(CC(C)C)N(C)C(=O)C(CC(C)C)N(C)C(=O)C(C)NC(=O)C(C)NC(=O)C(CC(C)C)N(C)C(=O)C(C(C)C)NC(=O)C(CC(C)C)N(C)C(=O)CN(C)C1=O (centres unmarked) [Compound 57A-o],1000 to 100000
5,CCC1NC(=O)C(C2OC(Oc3cc(Cl)cc(OC)c3)CC2C)N(C)C(=O)C(C(C)C)N(C)C(=O)C(CC(C)C)N(C)C(=O)C(CC(C)C)N(C)C(=O)C(C)NC(=O)C(C)NC(=O)C(CC(C)C)N(C)C(=O)C(C(C)C)NC(=O)C(CC(C)C)N(C)C(=O)CN(C)C1=O (centres unmarked) [Compound 59A-o],1000 to 100000
6,CCC1NC(=O)C(C2OC(Oc3ccc4ccccc4c3)CC2C)N(C)C(=O)C(C(C)C)N(C)C(=O)C(CC(C)C)N(C)C(=O)C(CC(C)C)N(C)C(=O)C(C)NC(=O)C(C)NC(=O)C(CC(C)C)N(C)C(=O)C(C(C)C)NC(=O)C(CC(C)C)N(C)C(=O)CN(C)C1=O (centres unmarked) [Compound 62-o],1000 to 100000
7,CCC1NC(=O)C(C2OC(Sc3ccc4ccccc4c3)CC2C)N(C)C(=O)C(C(C)C)N(C)C(=O)C(CC(C)C)N(C)C(=O)C(CC(C)C)N(C)C(=O)C(C)NC(=O)C(C)NC(=O)C(CC(C)C)N(C)C(=O)C(C(C)C)NC(=O)C(CC(C)C)N(C)C(=O)CN(C)C1=O (centres unmarked) [Compound 62],1000 to 100000
8,CCC1NC(=O)C(C2OC(Oc3cc(Cl)cc(OCc4ccccc4)c3)CC2C)N(C)C(=O)C(C(C)C)N(C)C(=O)C(CC(C)C)N(C)C(=O)C(CC(C)C)N(C)C(=O)C(C)NC(=O)C(C)NC(=O)C(CC(C)C)N(C)C(=O)C(C(C)C)NC(=O)C(CC(C)C)N(C)C(=O)CN(C)C1=O (centres unmarked) [Compound 63-o],1000 to 100000

# Same assay, conditions: given as a range, marked * (asterisk not explained)
row,Structure (SMILES),IC50 [nM]
1,CCC1NC(=O)C(C2OC(Oc3cc(OCCOC)cc(OCC4CCOCC4)c3)CC2C)N(C)C(=O)C(C(C)C)N(C)C(=O)C(CC(C)C)N(C)C(=O)C(CC(C)C)N(C)C(=O)C(C)NC(=O)C(C)NC(=O)C(CC(C)C)N(C)C(=O)C(C(C)C)NC(=O)C(CC(C)C)N(C)C(=O)CN(C)C1=O (centres unmarked) [Compound 55-o],1000 to 100000
2,CCC1NC(=O)C(C2OC(Sc3cc(OCCOC)cc(OCC4CCOCC4)c3)CC2C)N(C)C(=O)C(C(C)C)N(C)C(=O)C(CC(C)C)N(C)C(=O)C(CC(C)C)N(C)C(=O)C(C)NC(=O)C(C)NC(=O)C(CC(C)C)N(C)C(=O)C(C(C)C)NC(=O)C(CC(C)C)N(C)C(=O)CN(C)C1=O (centres unmarked) [Compound 55],1000 to 100000
3,CCC1NC(=O)C(C2OC(Oc3cc(OCCOC)cc(OCc4cccs4)c3)CC2C)N(C)C(=O)C(C(C)C)N(C)C(=O)C(CC(C)C)N(C)C(=O)C(CC(C)C)N(C)C(=O)C(C)NC(=O)C(C)NC(=O)C(CC(C)C)N(C)C(=O)C(C(C)C)NC(=O)C(CC(C)C)N(C)C(=O)CN(C)C1=O (centres unmarked) [Compound 56-o],1000 to 100000
4,CCC1NC(=O)C(C2OC(Sc3cc(OCCOC)cc(OCc4cccs4)c3)CC2C)N(C)C(=O)C(C(C)C)N(C)C(=O)C(CC(C)C)N(C)C(=O)C(CC(C)C)N(C)C(=O)C(C)NC(=O)C(C)NC(=O)C(CC(C)C)N(C)C(=O)C(C(C)C)NC(=O)C(CC(C)C)N(C)C(=O)CN(C)C1=O (centres unmarked) [Compound 56],1000 to 100000
5,CCC1NC(=O)C(C2OC(Oc3cccc(OCc4ccc5ccc(=O)oc5c4)c3)CC2C)N(C)C(=O)C(C(C)C)N(C)C(=O)C(CC(C)C)N(C)C(=O)C(CC(C)C)N(C)C(=O)C(C)NC(=O)C(C)NC(=O)C(CC(C)C)N(C)C(=O)C(C(C)C)NC(=O)C(CC(C)C)N(C)C(=O)CN(C)C1=O (centres unmarked) [Compound 58A-o],1000 to 100000
6,CCC1NC(=O)C(C2OC(Oc3cc(OC)cc(OCc4ccc(F)cc4)c3)CC2C)N(C)C(=O)C(C(C)C)N(C)C(=O)C(CC(C)C)N(C)C(=O)C(CC(C)C)N(C)C(=O)C(C)NC(=O)C(C)NC(=O)C(CC(C)C)N(C)C(=O)C(C(C)C)NC(=O)C(CC(C)C)N(C)C(=O)CN(C)C1=O (centres unmarked) [Compound 60A-o],1000 to 100000
7,CCC1NC(=O)C(C2OC(Oc3cc(Cl)cc(OCc4ccc(F)cc4)c3)CC2C)N(C)C(=O)C(C(C)C)N(C)C(=O)C(CC(C)C)N(C)C(=O)C(CC(C)C)N(C)C(=O)C(C)NC(=O)C(C)NC(=O)C(CC(C)C)N(C)C(=O)C(C(C)C)NC(=O)C(CC(C)C)N(C)C(=O)CN(C)C1=O (centres unmarked) [Compound 61A-o],1000 to 100000

# Same assay, conditions: given as a range; assay not given
row,Structure (SMILES),IC50 [nM]
1,"CCC1NC(=O)C(C2OC(Sc3cccc(OCc4ccccn4)c3)CC2C)N(C)C(=O)C(C(C)C)N(C)C(=O)C(CC(C)C)N(C)C(=O)C(CC(C)C)N(C)C(=O)C(C)NC(=O)C(C)NC(=O)C(CC(C)C)N(C)C(=O)C(C(C)C)NC(=O)C(CC(C)C)N(C)C(=O)CN(C)C1=O [Compound 52A, [2-((2R,3R)-3-methyl-5-(3-(pyridin-2-ylmethoxy)phenylthio)tetrahydrofuran-2-yl)-2-(methylamino)acetic acid]^1-cyclosporin A]",1 to 1000
2,"CCC1NC(=O)C(C2OC(Sc3cccc(OCc4cccnc4)c3)CC2C)N(C)C(=O)C(C(C)C)N(C)C(=O)C(CC(C)C)N(C)C(=O)C(CC(C)C)N(C)C(=O)C(C)NC(=O)C(C)NC(=O)C(CC(C)C)N(C)C(=O)C(C(C)C)NC(=O)C(CC(C)C)N(C)C(=O)CN(C)C1=O [Compound 53A, [2-((2R,3R)-3-methyl-5-(3-(pyridin-3-ylmethoxy)phenylthio)tetrahydrofuran-2-yl)-2-(methylamino)acetic acid]^1-cyclosporin A]",1 to 1000
3,"CCC1NC(=O)C(C2OC(Sc3cccc(OCc4ccncc4)c3)CC2C)N(C)C(=O)C(C(C)C)N(C)C(=O)C(CC(C)C)N(C)C(=O)C(CC(C)C)N(C)C(=O)C(C)NC(=O)C(C)NC(=O)C(CC(C)C)N(C)C(=O)C(C(C)C)NC(=O)C(CC(C)C)N(C)C(=O)CN(C)C1=O [Compound 54A, [2-((2,3R)-3-methyl-5-(3-(pyridin-4-ylmethoxy)phenylthio)tetrahydrofuran-2-yl)-2-(methylamino)acetic acid]^1-cyclosporin A]",1 to 1000
4,"CCC1NC(=O)C(C2OC(Sc3ccc(OCc4ccccc4)cc3)CC2C)N(C)C(=O)C(C(C)C)N(C)C(=O)C(CC(C)C)N(C)C(=O)C(CC(C)C)N(C)C(=O)C(C)NC(=O)C(C)NC(=O)C(CC(C)C)N(C)C(=O)C(C(C)C)NC(=O)C(CC(C)C)N(C)C(=O)CN(C)C1=O [Compound 57A, [2-((2R,3R)-5-(4-(benzyloxy)phenylthio)-3-methyltetrahydrofuran-2-yl)-2-(methylamino)acetic acid]^1-cyclosporin A]",1 to 1000
5,"CCC1NC(=O)C(C2OC(Sc3cccc(OCc4ccc5ccc(=O)oc5c4)c3)CC2C)N(C)C(=O)C(C(C)C)N(C)C(=O)C(CC(C)C)N(C)C(=O)C(CC(C)C)N(C)C(=O)C(C)NC(=O)C(C)NC(=O)C(CC(C)C)N(C)C(=O)C(C(C)C)NC(=O)C(CC(C)C)N(C)C(=O)CN(C)C1=O [Compound 58A, [2-((2R,3R)-3-methyl-5-(3-((2-oxo-2H-chromen-7-yl)methoxy)phenylthio)tetrahydrofuran-2-yl)-2-(methylamino)acetic acid]^1-cyclosporin A]",1 to 1000
6,"CCC1NC(=O)C(C2OC(Sc3cc(Cl)cc(OC)c3)CC2C)N(C)C(=O)C(C(C)C)N(C)C(=O)C(CC(C)C)N(C)C(=O)C(CC(C)C)N(C)C(=O)C(C)NC(=O)C(C)NC(=O)C(CC(C)C)N(C)C(=O)C(C(C)C)NC(=O)C(CC(C)C)N(C)C(=O)CN(C)C1=O [Compound 59A, [2-((2R,3R)-5-(3-chloro-5-methoxyphenylthio)-3-methyltetrahydrofuran-2-yl)-2-(methylamino)acetic acid]^1-cyclosporin A]",1 to 1000
7,"CCC1NC(=O)C(C2OC(Sc3cc(OC)cc(OCc4ccc(F)cc4)c3)CC2C)N(C)C(=O)C(C(C)C)N(C)C(=O)C(CC(C)C)N(C)C(=O)C(CC(C)C)N(C)C(=O)C(C)NC(=O)C(C)NC(=O)C(CC(C)C)N(C)C(=O)C(C(C)C)NC(=O)C(CC(C)C)N(C)C(=O)CN(C)C1=O [Compound 60A, [2-((2R,3R)-5-(3-(4-fluorobenzyloxy)-5-methoxyphenylthio)-3-methyltetrahydrofuran-2-yl)-2-(methylamino)acetic acid]^1-cyclosporin A]",1 to 1000

# Same assay, conditions: given as a range; assay not given; read-out: IC50
row,Structure (SMILES),IC50 [nM]
1,"CCC1NC(=O)C(C2OC(Sc3cc(Cl)cc(OCc4ccc(F)cc4)c3)CC2C)N(C)C(=O)C(C(C)C)N(C)C(=O)C(CC(C)C)N(C)C(=O)C(CC(C)C)N(C)C(=O)C(C)NC(=O)C(C)NC(=O)C(CC(C)C)N(C)C(=O)C(C(C)C)NC(=O)C(CC(C)C)N(C)C(=O)CN(C)C1=O [Compound 61A, [2-((2R,3R)-5-(3-chloro-5-(4-fluorobenzyloxy)phenylthio)-3-methyltetrahydrofuran-2-yl)-2-(methylamino)acetic acid] 1-cyclosporin A]",1 to 1000
